According to patent publication US20240318145A1, “STRUCTURALLY COMPLETE ORGANOIDS” (Children's Hospital Medical Center, priority 2021, published 2024):
Entries after “also recorded” stand apart in the source; their conditions may differ.

How the values were obtained:
Assay type in all cases: cell-based, human
muscarinic receptor = test: Ex vivo isometric force contraction of muscle strips from transplanted hAGO +SM +ENS in an organ bath
ENS = test system: ENS
ENCCs = test: Expression of BMP ligands in ENCC culture (qRT-PCR); conditions: ENCC culture treated with NOG; FIG. 15B
Method: (§1) One candidate pathway was BMP signaling, which is known to promote posterior fate in the gastrointestinal junction. Analysis of ENCCs show high levels of expression of both BMP4 and BMP7 (FIG. 15A). To functionally investigate if BMP activity might mediate the ability of ENCCs to promote a Brunner's gland fate, ENCCs were recombined with hAGO at day 6 and then organoids were cultured with the BMP inhibitor Noggin (NOG) from day 6-9, along with RA, which is a component of the normal hAGO protocol. None of the grafts (0 out of 27) had Brunner's gland epithelium following 3 days of Noggin treatment as compared to hAGOs +ENCCs added at day 9 not treated with NOG (5 out of 21 grafts). […]
RNA isolation and quantitative real-time PCR (qRT-PCR): Spheroids and organoids were harvested in RAI Lysis Buffer and β-mercapethanol and stored at −80° C. until total RNA was isolated using NucleoSpin RNA Isolation Kit (Macherey-Nagel) according to manufacturers' instructions. Complementary DNA (cDNA) was reverse transcribed from 116 ng of RNA using a SuperScript VILO cDNA Synthesis Kit (Invitrogen). qRT-PCR was performed using a QuantiTect SYBR Green PCR Kit (Qiagen) in MicroAmp EnduraPlate Optical 96-Well Fast Reaction Plates (Applied Biosystems) and run on a QuantStudio 6 Real-Time PCR Detection System (Applied Biosystems). […]

hAGOs +ENCCs = test: Brunner's gland epithelium in grafts of hAGOs recombined with ENCCs and transplanted into mice; conditions: ENCCs recombined at day 6, Noggin day 6-9 (3 days) along with RA; compared with 5 out of 21 grafts not treated
Method: as §1
Recombination and additional spheroid patterning: Single cell suspensions of mesenchymal cells and ENCCs were counted and added to foregut spheroids at an approximate ratio of 1,000 ENCCs and 2,500 mesenchyme cells per spheroid. […]
In vivo transplantation of hAGOs and hFGOs: hAGO, hFGO, hAGO +ENS, hAGO +SM +ENS, hAGO +SM +ENS, and hFGO +SM +ENS were all ectopically transplanted into the kidney capsule of NSG mice. […] Engrafted organoids were harvested 6-15 weeks after transplantation and analyzed for neuroglial, epithelial, and mesenchymal maturation.

For `CC(C[N+](C)(C)C)OC(N)=O` (stereo not drawn) [bethanechol, Carbamyl-β-methylcholine chloride], the “contractility (smooth muscle force contraction), dose response” value (muscarinic receptor; 1 nM to 10 mM at 2 min intervals, tissue strips of transplanted hAGO +SM +ENS, FIG. 4C) was “increased in response to bethanechol in a dose-dependent manner” and the “normalized mean maximal tension” value (muscarinic receptor; bethanechol dose response before scopolamine, normalized to muscle strip mass, n=3, FIG. 4D) was 236.9 g/g.

In the case of `CN1[C@@H]2C[C@@H](OC(=O)[C@H](CO)c3ccccc3)C[C@H]1[C@@H]1O[C@@H]12` [scopolamine], the “reversal of contractions / muscle relaxation” value (muscarinic receptor) is reported as “contractions were able to be reversed and muscle relaxation induced”.

In the case of `NC1=N[C@H](O)[C@H]2[C@H]3O[C@]4(O)O[C@@H]([C@@H](O)[C@@]2(N1)[C@@H]4O)[C@]3(O)CO` [tetrodotoxin], the “EFS-stimulated contractile activity (change in AUC)” value (ENS) is reported as “abolished the ability of EFS to stimulate contractile activity; also recorded: abrogating EFS-mediated contractions”.

B1: Noggin: BMP inhibitor Noggin (NOG) (protein, UniProt Q13253 28-232, looked up)
Noggin: QHYLHIRPAPSDNLPLVDLIEHPDPIFDPKEKDLNETLLRSLLGGHYDPGFMATSPPEDRPGGGGGAAGGAEDLAELDQLLRQRPSGAMPSEIKGLEFSEGLAQGKKQRLSKKLRRKLQMWLWSQTFCPVLYAWNDLGSRFWPRYVKVGSCFSKRSCSVPEGMVCKPSKSVHLTVLRWRCQRRGGQRCGWIPIQYPIISECKCSC
For B1, the “levels of BMP4 and BMP7 expression” value (ENCCs) was “significantly reduced levels of both BMP4 and 7” and the “grafts with Brunner's gland epithelium” value (hAGOs +ENCCs) was 0 out of 27.
